The values below come from US9919023B2, “Anti-androgen peptides and uses thereof in cancer therapy” (Cancer Research Technology Limited, priority 2007, dated 2018).

Peptide text beside a SMILES is read from it.

Series [1] relates to MCF-7 cells. Put plainly: BrdU incorporation (DNA synthesis), estradiol-stimulated MCF-7 cells. Type of series: cell-based, human. As to conditions: 24 hrs. As for the experimental part:
(§1) DNA synthesis is assayed in single cells by a 6 h pulse with 100 μM (final concentration) BrdU (Boeheringer). Cells on coverslips are fixed, and incubated with diluted (1:1 in PBS) fluorescein-conjugated mouse anti-BrdU mAbs (clone BMC9318 from Boheringer Mannheim Co., IN), then washed three times with PBS. […] All coverslips are washed three times in PBS, inverted and mounted in Moviol (Calbiochem, CA) on glass slides. Slides are analyzed using an Axiophot fluorescent microscope (Zeiss).

The test system of series [2] is LNCaP cells. Put plainly: BrdU incorporation (DNA synthesis), R1881-stimulated LNCaP cells. Type of series: cell-based, human. As to conditions: for residual BrdU incorporation: R1881 alone 54%, untreated 20%. On the technique in general: Dividing cells build labelled thymidine or BrdU into new DNA.
The subject of a further series is androgen receptor. Nature of the series: ARE luciferase reporter gene transcription in LNCaP cells. Type of series: cell-based, human.
A further series addresses T1, AR association with Src (Homo sapiens, UniProt P12931).
T1 construct: Cell lysates are submitted to immuno-precipitation using mouse monoclonal anti-Src antibodies; endogenous in cells; host or cells: LNCaP
Nature of the series: Androgen-stimulated AR association with Src, anti-Src co-immunoprecipitation in LNCaP cells. Type of series: cell-based.

The subject of series [3] is LNCaP cells. Nature of the series: BrdU incorporation (DNA synthesis), EGF-stimulated LNCaP cells. Type of series: cell-based, human. The settings on record: 24 hrs. As for the experimental part: FIG. 1C. DNA synthesis inhibition of EGF-stimulated human prostate cancer cells by SH3 binder peptide modeled from AR (SEQ. ID NO.1). LNCaP cells were grown in phenol red-free medium added with charcoal-treated serum as previously described and treated for 24 hrs with 100 ng/ml EGF alone or in the presence of a 10 μM of the anti-estrogen ICI 182,780 or 1 nM of the AR-derived (SH3-binder) peptide (SEQ.ID NO.1) or the shuffled sequence of peptide SEQ.ID NO.1 (SEQ.ID NO.7). At the end of the growth factor treatment BrdU incorporation in the cells untreated (control) or treated with EGF alone (EGF) or in the presence of ICI 182,780 (ICI) or the SH3-binder (SH3) or the shuffled sequence of peptide SEQ.ID NO.1 (Ss) was assayed. Data are reported as percentage of cells incorporating BrdU.
(§2) The peptide SEQ.ID NO.1 is finally assayed for its ability to reduce or inhibit EGF induced DNA synthesis in human prostate cancer LNCaP (1C) and MCF-7 (1D) cells. The LNCaP and MCF-7 cells are cultured as described above, then seeded onto coverslips. Cells are then stimulated with 100 ng/ml of highly purified EGF (Boheringer, Calif.) in the absence or in presence of 1 nM peptide SEQ.ID NO.1.
as §1

Series [4] concerns MCF-7 cells. Put plainly: BrdU incorporation (DNA synthesis), EGF-stimulated MCF-7 cells. Type of series: cell-based, human. As to conditions: 24 hrs. As for the experimental part:
FIG. 1D. […] MCF-7 cells were grown in phenol red-free medium added with charcoal-treated serum as previously described and treated for 24 hrs with 100 ng/ml EGF alone or in the presence of a 10 μM of the anti-estrogen ICI 182,780 or 1 nM of the AR-derived (SH3-binder) peptide or the shuffled sequence of peptide SEQ ID NO.1 (SEQ.ID. NO.7). At the end of the growth factor treatment, BrdU incorporation in the cells untreated (control) or treated with EGF alone (EGF) or in the presence of ICI 182,780 (ICI) or SH3-binder (SH3) or shuffled sequence of peptide SEQ.ID NO.1 (Ss) was assayed. Data are reported as percentage of cells incorporating BrdU.
as §2, §1

For the next series, the target named is T2, ER association with Src (Homo sapiens, UniProt P12931).
T2 construct: Cell lysates are submitted to immunoprecipitation using mouse monoclonal anti-Src antibodies; endogenous in cells; host or cells: MCF-7
Nature of the series: Estrogen-stimulated ER/AR association with Src, anti-Src co-immunoprecipitation in MCF-7 cells. Type of series: cell-based.

For series [5], the system named is Cyclin D1. Nature of the series: Estrogen-induced cyclin D1 expression, western blot in MCF-7 and LNCaP cells. Type of series: cell-based, human. A general note: In western blotting, separated proteins are transferred to a membrane and probed.
Description: Quiescent MCF-7 and LNCaP cells were left untreated or treated for 8 hrs with 10 nM 17β estradiol alone or in the presence of 5 μM PI3-Kinase inhibitor LY294,002 or 1 nM of the SH3 binder or the shuffled sequence of peptide SEQ.ID NO.1 (SEQ.ID NO.7). Protein from cell lysates were resolved on SDS-PAGE, then transferred to nitrocellulose filters. […] Lanes 1: unstimulated cells; lanes 2: estradiol treated cells; lanes 3: cells treated with estradiol in the presence of LY294,002 (LY); lane 4: cells treated with estradiol in the presence of SH3-binder peptide (SH3); lane 5: cells treated with estradiol in the presence of the shuffled sequence of peptide SEQ.ID NO.1 (Ss).
To test the effect of SH3 binder peptide (SEQ.ID NO.1) on estrogen stimulated Cyclin D1 expression, this peptide is added to LNCaP and MCF-7 cells stimulated with 10 nM 17β-estradiol (FIG. 3B). MCF-7 and LNCaP cells are routinely grown as reported above. Cells are then kept for at least 4 days in red phenol-free medium supplemented as described above and added with dextran-coated charcoal treated fetal calf serum to minimize steroid contamination.
In series [6] the test system is Cyclin D1. Nature of the series: Androgen-induced cyclin D1 expression, western blot in MCF-7 and LNCaP cells. Type of series: cell-based, human.
Description: Inhibition of androgen-induced cyclin D1 expression by AR-derived Src-SH3 binder peptide (SEQ.ID NO.1). Quiescent MCF-7 and LNCaP cells were left untreated or treated for 8 hrs with 10 nM R1881 alone or in the presence of 5 μM PI3-kinase inhibitor LY294,002 or 1 nM AR-derived SH3 binder or the shuffled sequence of peptide SEQ.ID NO.1 (SEQ.ID. NO.7). Protein from cell lysates were resolved on SDS-PAGE, then transferred to nitrocellulose filters. […] Lanes 1: unstimulated cells; lanes 2: R1881 treated cells; lanes 3: cells treated with R1881 in the presence of LY294,002 (LY); lanes 4: cells treated with R1881 in the presence of AR-derived (SH3-binder) peptide (SH3); lane 5: cells treated with R1881 in the presence of the shuffled sequence of peptide SEQ.ID NO.1 (Ss).
To verify this possibility, SH3 binder peptide (SEQ.ID NO.1) is added to MCF-7 and LNCaP cells stimulated with the androgen. MCF-7 and LNCaP cells are routinely grown as described above. Cells are then kept for at least 4 days in red phenol-free medium supplemented as described above and added with dextran-coated charcoal treated fetal calf serum to minimize steroid concentration.
Another series relates to MCF-7 cell xenografts. Nature of the series: MCF-7 cell xenografts in nude male mice. As to conditions: peptide intraperitoneally on alternate days, MCF-7 xenograft mice; data not shown.
The test system of the next series is LNCaP cell xenografts. Put plainly: LNCaP cell xenografts in nude male mice. As to conditions: peptide intraperitoneally on alternate days, LNCaP xenograft mice; data not shown.
The mark [7] stands for this setting: 1 nM peptide with 10 nM R1881, 24 hrs.
Setting [8] is: 1 nM peptide with 10 nM 17β estradiol.

Description for ER association with Src: Human breast cancer MCF-7 cells were left unstimulated or stimulated for 2 min with 10 nM 17β estradiol alone or in the presence of a 1000 fold excess of ICI 182,780 or 1 nM of the SH3 binder peptide or the shuffled sequence of peptide SEQ.ID NO.1 (SEQ.ID NO.7). Cell lysates were incubated with anti-Src antibodies, immunoprecipitated proteins were resolved on SDS-PAGE and transferred onto nitrocellulose filters. Filters were then blotted with either anti-Src or anti-human AR antibodies to detect AR associated with Src.
Cells are suspended in 1 ml of lysis buffer: 50 mM Tris-HCl, pH 7.40, containing 5 mM MgCl2, 150 mM NaCl, 0.5% Triton X-100 and left under gentle shaking for 2 min, at 4° C. Suspensions are then centrifuged at about 800 g for 30 min and supernatant collected and used for immunoprecipitation.
To address this point mammary cancer derived MCF-7 cells are grown in 5% CO2 in air in DMEM medium (GIBCO) supplemented with phenol-red, 2 mM L-glutamine (GIBCO), penicillin (100 U/ml), gentamicin (50 μl/ml), hydrocortisone (3.75 ng/ml) insulin (0.2 U.I./ml) and 5% fetal calf serum. The cells are then kept in DMEM without phenol red and supplemented with glutamine, penicillin, gentamicin and insulin as above and containing 5% charcoal-stripped fetal calf serum for additional 4 days. […]
Description for LNCaP cell xenografts: LNCaP prostate cancer cells were grown subcutaneously in nude male mice. After tumor reached the size of 200-400 mm^3, mice were treated with intra-peritoneal injection of 200 μl of control (ctrl) solution (circles) or the same solution containing 2 μM of SH3 (SH3) binder peptide SEQ.ID NO.1 (squares). Treatment started at beginning of week 0 and peptides were given in alternate days for 4 weeks, using 5 animals per group.
At the end of the treatment, tumor specimens were assayed for Ki-67 antigen expression and apoptosis.
LNCaP cancer cells, grown under routine conditions above described, are suspended in 50% (vol/vol) Matrigel solution in sterile PBS (pH 7.4) and injected subcutaneously in the dorsal posterior region at 2.5×10^6 cells/male athymic mice (CD mice, Charles-River) without hormone priming.
The treatment is initiated with tumors at approximately 200-400 mm^3 in size. Tumor volumes of LNCaP cells xenografts with or without treatments are measured by a caliper and recorded according to the formula D×d^2×0.5, where D is the length and d is the width of tumor.
For peptide treatment of each animal, 200 μl of 20 nM SH3 binder-peptide SEQ. […]
At the end of treatment the animals are sacrificed and tumor specimens are assayed for Ki67 antigen and apoptotic cells. […] TUNEL positive cells are detected with diamino-benzidine and H2O2 according to the supplier's instructions. […]
Description for MCF-7 cell xenografts: MCF-7 human breast cancer cells were grown subcutaneously in nude male mice. When tumors were about 1000 mm^3 in size, mice were treated with intraperitoneal injection of 200 μl of control solution (ctrl, circles) or 200 μl of the same solution containing 2 μM of the SH3 binder peptide SEQ.ID NO.1 (SH3, squares). Treatment started at beginning of week 0 and peptides were given in alternate days for 5 weeks, using 5 animals per group
MCF-7 cells xenografts in male nude mice are the same as the one used in the experiment of FIG. 5B. At the end of treatment tumor specimens were assayed for Ki-67 antigen expression and apoptosis.
In this case MCF-7 cells, previously grown as described above, are suspended in 50% Matrigel (vol/vol) solution in sterile PBS and injected subcutaneously at 2.5×10^6 cells/animal in athymic male mice. […] Tumor volumes of MCF-7 cancer cell xenograft with or without treatment are measured and recorded as reported above.
At the end of treatment the animals are sacrificed and tumor specimens are assayed for Ki67 antigen and apoptotic cells. […] The level of concordance, expressed as the percentage of agreement between the observers, is 92%. […] TUNEL positive cells are detected with diamino-benzidine and H2O2 according to the supplier's instructions. […] The level of concordance, expressed as the percentage of agreement between the observers, is 100%.
Description for androgen receptor: LNCaP cells were transfected with a reporter gene encoding the luciferase gene under the control of an androgen responsive element (ARE 3416) (Castoria et al., 2003). Six hrs after transfection, cells were kept for further 24 hrs in the absence or in presence of 10 nM R1881 alone or with a 1000 fold excess of Casodex or with 1 nM SH3 binder peptide (SEQ.ID NO.1) or 1 nM shuffled sequence of peptide SEQ.ID NO.1 (SEQ.ID. NO.7). Luciferase activity was then assayed in cell lysates. Bar1: unstimulated cells; Bar 2: R1881 treated cells; Bar 3: cells treated with R1881 in the presence of Casodex (Cdx); Bar 4: cells treated with R1881 in the presence of the SH3 binder peptide (SH3); Bar 5: cells treated with R1881 in the presence of the shuffled sequence of peptide SEQ.ID NO.1 (Ss).
LNCaP cells, kept in 5% CO2 in air in RPMI 1640 medium (GIBCO) supplemented with phenol-red, 2 mM L-glutamine (GIBCO), penicillin (100 U/ml), gentamicin (50 μl/ml), insulin and 10% fetal calf serum, are transfected with a reporter gene engineered in a pSG5 expression vector with the luciferase gene under the control of an androgen responsive element (ARE3416) (Verrijdt et al., 2000). […]

On to `C[C@]12CC[C@@H]3c4ccc(O)cc4CC[C@H]3[C@@H]1CC[C@@H]2O` [17β estradiol], for which the BrdU incorporation rate in the series on MCF-7 cells [1] (10 nM 17β estradiol alone, untreated cells 8%, averaged from six assays) was found to be 61%.
With `CC(O)(CS(=O)(=O)c1ccc(F)cc1)C(=O)Nc1ccc(C#N)c(C(F)(F)F)c1` (stereo not shown) [Casodex, biclutamide], the “residual BrdU incorporation” value in the series with LNCaP cells [2] (1000-fold excess with 10 nM R1881, 24 hrs) is recorded as 21%. Besides, the “androgen induced transcription of reporter gene” value with androgen receptor (1000 fold excess with 10 nM R1881, 24 hrs) is reported as “completely inhibits”. Besides, the “hormone stimulated Src-AR association (AR co-immunoprecipitated by anti-Src antibodies)” value at AR association with Src (1000-fold excess with 10 nM R1881, 2 min) is reported as “abolished”.
For `C[C@]12CC[C@@H]3c4ccc(O)cc4C[C@@H](CCCCCCCCC[S+]([O-])CCCC(F)(F)C(F)(F)F)[C@H]3[C@@H]1CC[C@@H]2O` (stereo partly shown) [ICI 182,780], the “residual BrdU incorporation” value was 7% with LNCaP cells [3] (10 μM with 100 ng/ml EGF, EGF alone 21%, untreated 8%); 9% in the series with MCF-7 cells [4] (10 μM with 100 ng/ml EGF, EGF alone 36%, untreated 6%); 7% in the series with MCF-7 cells [1] (1000-fold excess with 10 nM 17β estradiol, E2 alone 61%, untreated 8%). In addition, the “association between ER and Src (co-immunoprecipitation by anti-Src antibodies)” value at ER association with Src (1000-fold excess with 10 nM 17β estradiol) is listed as “abolished”.
Take `O=c1cc(N2CCOCC2)oc2c(-c3ccccc3)cccc12` [LY 294,002]: the “hormone stimulated cyclin expression” value in the series on Cyclin D1 [5] (5 μM with 10 nM 17β estradiol) is recorded as “abolishes”; in the series with Cyclin D1 [6] (5 μM with 10 nM R1881, MCF-7 and LNCaP), “abolishes”.
`CC(C)(C)n1nc(-c2ccc(Cl)cc2)c2c(N)ncnc21` [PP2]: the “hormone stimulated cyclin expression” value in the series on Cyclin D1 [6] (with 10 nM R1881, concentration not given, data not shown) is “abolishes”.
Consider `C[C@]1(O)CC[C@H]2[C@@H]3CCC4=CC(=O)CCC4=C3C=C[C@@]21C` [R1881], for which the BrdU incorporation rate in the series on LNCaP cells [2] (10 nM R1881 alone, 24 hrs, untreated cells 20%, averaged from six assays) is reported as 54%.
Take `CC[C@H](C)[C@H](NC(=O)[C@H](CCCNC(=N)N)NC(=O)[C@H](C)NC(=O)[C@H](Cc1c[nH]cn1)NC(=O)[C@@H]1CCCN1C(=O)[C@H](Cc1c[nH]cn1)NC(=O)[C@@H]1CCCN1C(=O)[C@@H]1CCCN1C(=O)[C@@H]1CCCN1C(C)=O)C(=O)N[C@@H](CCCCN)C(N)=O` [SEQ.ID NO.1, Ac-Pro-Pro-Pro-His-Pro-His-Ala-Arg-Ile-Lys-NH2] (Ac-PPPHPHARIK-NH2): the “weight of mice vs vehicle” value with MCF-7 cell xenografts and in the series with LNCaP cell xenografts was “No difference” each time.
Regarding “Ac-His-Pro-Lys-Pro-Ala-Arg-Ile-Pro-His-Pro-NH2 (Ac-HPKPARIPHP-NH2) [SEQ.ID NO.7]”, the “residual BrdU incorporation” value with LNCaP cells [2] (setting [7]) turned out to be 48%. The “transcriptional activity of AR (luciferase reporter)” value in the series on androgen receptor (setting [7]) is on record as “neither the SH3 peptide nor the shuffled sequence of peptide SEQ. ID NO.1 affect”. Moreover, the “BrdU incorporation (residual)” value in the series with LNCaP cells [3] (1 nM peptide with 100 ng/ml EGF, EGF alone 21%, untreated 8%) is on record as 15%; with MCF-7 cells [4] (1 nM peptide with 100 ng/ml EGF, EGF alone 36%, untreated 6%), 48%. The “Cyclin D induction by estrogen” value with Cyclin D1 [5] (1 nM peptide with 10 nM 17β estradiol, 6 hrs) is given as “a little effect”. The “Cyclin D induction by R1881” value in the series with Cyclin D1 [6] (1 nM peptide with 10 nM R1881, 6 hrs, MCF-7 and LNCaP) is on record as “only partially reduces”. Moreover, the “hormone stimulated Src-AR association (AR co-immunoprecipitated by anti-Src antibodies)” value with AR association with Src (1 nM peptide with 10 nM R1881, 2 min) is “only slightly affected”. The “hormone stimulated receptor-Src association (co-immunoprecipitation by anti-Src antibodies)” value with ER association with Src (setting [8]) is “only slightly affected”. In addition, in the series on MCF-7 cells [1] (setting [8]), the “effect on estrogen-induced DNA synthesis” value was “not significant effect”.
Consider “EGF: highly purified EGF, growth factor used as stimulus”, for which the BrdU incorporation with LNCaP cells [3] (100 ng/ml EGF alone, untreated cells 8%) came to 21%; with MCF-7 cells [4] (100 ng/ml EGF alone, untreated cells 6%) it was 36%.
